According to patent US8415469B2, “Compounds and methods for kinase modulation, and indications therefor” (Plexxikon Inc., priority 2005, dated 2013):

Columns and labels:
Format in all cases: biochemical
B-Raf = molecular target: T1, B-Raf (Homo sapiens, UniProt P15056); test: AlphaScreen kinase assay, B-Raf; details: read-out: IC50, activity toward kinase B-Raf
T1 construct: purchased Upstate Biotechnology

B-Raf V600E = molecular target: T2, B-Raf V600E (Homo sapiens, UniProt P15056, V600E); test: AlphaScreen kinase assay, B-Raf V600E; details: read-out: IC50, activity toward kinase B-Raf V600E
T2 construct: P4254. pFastBacBD-CDC37 BRAF D437-K722-X, V600E; His6 with pFastBac HT leader (TEV site) (N); made in house; host or cells: Sf9 (baculovirus; chaperone CDC37 co-expressed)
T2 sequence (P15056 with tags, fused parts or gaps V600E): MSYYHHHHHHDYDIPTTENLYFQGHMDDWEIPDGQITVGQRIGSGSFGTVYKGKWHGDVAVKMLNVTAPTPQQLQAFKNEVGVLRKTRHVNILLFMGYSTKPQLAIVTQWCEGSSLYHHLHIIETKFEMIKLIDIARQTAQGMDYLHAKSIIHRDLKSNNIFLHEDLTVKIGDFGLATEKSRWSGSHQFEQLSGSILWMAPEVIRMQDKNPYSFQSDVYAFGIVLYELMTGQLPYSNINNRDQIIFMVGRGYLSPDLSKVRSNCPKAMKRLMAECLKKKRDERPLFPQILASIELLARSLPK

c-Raf-1 = molecular target: T3, c-Raf-1 (Homo sapiens, UniProt P04049); test: AlphaScreen kinase assay, c-Raf-1; details: read-out: IC50, activity toward kinase c-Raf-1
T3 construct: purchased Upstate Biotechnology
T3 sequence (P04049 whole entry): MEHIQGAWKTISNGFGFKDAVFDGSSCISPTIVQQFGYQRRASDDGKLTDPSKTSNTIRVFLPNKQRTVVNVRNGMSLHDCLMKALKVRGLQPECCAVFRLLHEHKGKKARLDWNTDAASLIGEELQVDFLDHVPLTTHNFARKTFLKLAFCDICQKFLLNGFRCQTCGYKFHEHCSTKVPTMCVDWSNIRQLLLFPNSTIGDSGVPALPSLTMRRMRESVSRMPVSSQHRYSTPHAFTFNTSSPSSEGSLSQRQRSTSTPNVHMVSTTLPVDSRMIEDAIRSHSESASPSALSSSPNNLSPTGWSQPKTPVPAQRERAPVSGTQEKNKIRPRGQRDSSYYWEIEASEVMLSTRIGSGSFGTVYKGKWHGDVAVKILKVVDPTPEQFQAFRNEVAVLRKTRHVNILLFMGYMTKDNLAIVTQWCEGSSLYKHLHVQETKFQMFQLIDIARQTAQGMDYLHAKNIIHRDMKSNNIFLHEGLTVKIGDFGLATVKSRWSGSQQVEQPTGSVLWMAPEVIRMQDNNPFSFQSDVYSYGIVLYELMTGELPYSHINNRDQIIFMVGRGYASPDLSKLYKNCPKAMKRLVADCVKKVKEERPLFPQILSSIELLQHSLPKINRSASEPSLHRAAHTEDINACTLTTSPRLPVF

FGFR1 = molecular target: T4, FGFR1 (Homo sapiens, UniProt P11362, C488A/C584S); test: AlphaScreen kinase assay, FGFR1; details: read-out: IC50, activity toward kinase FGFR
T4 construct: P1351.pET N6 BI-PTP FGFR A458-E765-X C488A, C584S; made in house; host or cells: E. coli (PTP1B co-expressed)
T4 sequence (P11362 458-765 C488A/C584S): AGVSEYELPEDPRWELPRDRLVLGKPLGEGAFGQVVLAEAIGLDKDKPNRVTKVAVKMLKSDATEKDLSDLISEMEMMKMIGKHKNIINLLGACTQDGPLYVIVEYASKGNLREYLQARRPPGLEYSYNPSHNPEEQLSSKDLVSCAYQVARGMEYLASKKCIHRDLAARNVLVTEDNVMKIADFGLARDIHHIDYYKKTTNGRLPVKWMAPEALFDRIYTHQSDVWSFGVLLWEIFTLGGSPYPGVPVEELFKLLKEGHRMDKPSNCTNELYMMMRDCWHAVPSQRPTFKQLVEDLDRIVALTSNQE

Fms = molecular target: T5, Fms (Homo sapiens, UniProt P07333); test: AlphaScreen kinase assay, Fms; details: read-out: IC50, activity toward kinase Fms
T5 construct: purchased Upstate Biotechnology
T5 sequence (P07333 20-972): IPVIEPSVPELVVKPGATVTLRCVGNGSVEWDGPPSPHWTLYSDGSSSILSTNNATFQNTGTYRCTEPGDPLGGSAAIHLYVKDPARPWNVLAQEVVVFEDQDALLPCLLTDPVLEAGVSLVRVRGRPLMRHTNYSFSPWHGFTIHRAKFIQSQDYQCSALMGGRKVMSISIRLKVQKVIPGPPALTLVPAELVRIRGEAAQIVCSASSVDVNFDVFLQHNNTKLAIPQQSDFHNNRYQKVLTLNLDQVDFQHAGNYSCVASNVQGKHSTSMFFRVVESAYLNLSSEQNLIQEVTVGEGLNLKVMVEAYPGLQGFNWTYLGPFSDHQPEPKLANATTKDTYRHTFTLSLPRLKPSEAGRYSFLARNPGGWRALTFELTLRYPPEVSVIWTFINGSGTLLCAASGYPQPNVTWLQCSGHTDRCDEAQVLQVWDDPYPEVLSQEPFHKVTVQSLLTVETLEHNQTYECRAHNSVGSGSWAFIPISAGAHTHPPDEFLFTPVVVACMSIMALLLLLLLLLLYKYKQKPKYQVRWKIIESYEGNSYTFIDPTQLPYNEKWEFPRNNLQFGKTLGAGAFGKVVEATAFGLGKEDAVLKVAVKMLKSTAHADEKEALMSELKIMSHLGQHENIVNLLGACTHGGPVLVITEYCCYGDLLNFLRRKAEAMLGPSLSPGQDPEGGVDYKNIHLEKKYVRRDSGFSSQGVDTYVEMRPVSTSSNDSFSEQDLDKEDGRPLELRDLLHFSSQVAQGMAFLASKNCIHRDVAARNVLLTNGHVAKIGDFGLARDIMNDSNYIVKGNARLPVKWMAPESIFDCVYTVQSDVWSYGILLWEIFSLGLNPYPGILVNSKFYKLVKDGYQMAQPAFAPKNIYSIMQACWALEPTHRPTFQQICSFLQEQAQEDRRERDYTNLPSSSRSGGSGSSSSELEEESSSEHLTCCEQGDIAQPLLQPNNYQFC

Jnk1 = molecular target: T6, Jnk1 (Homo sapiens, UniProt P45983); test: AlphaScreen kinase assay, Jnk1; details: read-out: IC50, activity toward kinase Jnk1
T6 construct: purchased Upstate Biotechnology
T6 sequence (P45983 whole entry): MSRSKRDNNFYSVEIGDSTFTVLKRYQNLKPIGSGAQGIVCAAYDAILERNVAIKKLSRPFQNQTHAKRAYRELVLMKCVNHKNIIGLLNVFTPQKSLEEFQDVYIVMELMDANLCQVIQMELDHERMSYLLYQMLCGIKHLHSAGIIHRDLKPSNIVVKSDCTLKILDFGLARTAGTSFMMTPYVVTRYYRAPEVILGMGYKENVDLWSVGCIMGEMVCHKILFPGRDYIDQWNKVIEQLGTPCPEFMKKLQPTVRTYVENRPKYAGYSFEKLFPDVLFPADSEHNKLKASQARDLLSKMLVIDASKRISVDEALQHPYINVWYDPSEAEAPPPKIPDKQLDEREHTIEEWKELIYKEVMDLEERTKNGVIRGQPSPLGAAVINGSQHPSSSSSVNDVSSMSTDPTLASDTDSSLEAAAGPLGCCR

Kit = molecular target: T7, Kit (Homo sapiens, UniProt P10721); test: AlphaScreen kinase assay, Kit; details: read-out: IC50, activity toward kinase Kit
T7 construct: P1332.N6 BI PTP KIT M552-K948-X COD; His6 (N); made in house; host or cells: E. coli (PTP1B co-expressed)
T7 sequence (P10721 with tags, fused parts or gaps): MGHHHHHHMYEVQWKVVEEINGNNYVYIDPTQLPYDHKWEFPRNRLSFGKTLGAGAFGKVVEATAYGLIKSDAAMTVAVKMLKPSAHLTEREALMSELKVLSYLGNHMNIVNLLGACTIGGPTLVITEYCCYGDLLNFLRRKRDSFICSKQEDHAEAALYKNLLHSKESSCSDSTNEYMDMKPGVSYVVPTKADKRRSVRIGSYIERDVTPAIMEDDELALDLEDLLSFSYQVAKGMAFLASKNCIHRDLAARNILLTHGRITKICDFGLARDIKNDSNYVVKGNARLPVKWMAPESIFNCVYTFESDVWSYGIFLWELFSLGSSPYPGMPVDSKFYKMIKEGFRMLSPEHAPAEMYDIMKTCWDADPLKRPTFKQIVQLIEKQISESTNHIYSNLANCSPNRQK

Src = molecular target: T8, Src (Homo sapiens, UniProt P12931); test: AlphaScreen kinase assay, Src; details: read-out: IC50, activity toward kinase Src
T8 construct: P1144. pET-N6 BI-PTP SRC V86-L536-X; made in house

MAP4K4 = MAP4K4 (Homo sapiens, UniProt O95819); test: AlphaScreen kinase assay, MAP4K4; details: read-out: IC50, activity toward kinase MAP4K4
Chain of MAP4K4 (O95819 whole entry): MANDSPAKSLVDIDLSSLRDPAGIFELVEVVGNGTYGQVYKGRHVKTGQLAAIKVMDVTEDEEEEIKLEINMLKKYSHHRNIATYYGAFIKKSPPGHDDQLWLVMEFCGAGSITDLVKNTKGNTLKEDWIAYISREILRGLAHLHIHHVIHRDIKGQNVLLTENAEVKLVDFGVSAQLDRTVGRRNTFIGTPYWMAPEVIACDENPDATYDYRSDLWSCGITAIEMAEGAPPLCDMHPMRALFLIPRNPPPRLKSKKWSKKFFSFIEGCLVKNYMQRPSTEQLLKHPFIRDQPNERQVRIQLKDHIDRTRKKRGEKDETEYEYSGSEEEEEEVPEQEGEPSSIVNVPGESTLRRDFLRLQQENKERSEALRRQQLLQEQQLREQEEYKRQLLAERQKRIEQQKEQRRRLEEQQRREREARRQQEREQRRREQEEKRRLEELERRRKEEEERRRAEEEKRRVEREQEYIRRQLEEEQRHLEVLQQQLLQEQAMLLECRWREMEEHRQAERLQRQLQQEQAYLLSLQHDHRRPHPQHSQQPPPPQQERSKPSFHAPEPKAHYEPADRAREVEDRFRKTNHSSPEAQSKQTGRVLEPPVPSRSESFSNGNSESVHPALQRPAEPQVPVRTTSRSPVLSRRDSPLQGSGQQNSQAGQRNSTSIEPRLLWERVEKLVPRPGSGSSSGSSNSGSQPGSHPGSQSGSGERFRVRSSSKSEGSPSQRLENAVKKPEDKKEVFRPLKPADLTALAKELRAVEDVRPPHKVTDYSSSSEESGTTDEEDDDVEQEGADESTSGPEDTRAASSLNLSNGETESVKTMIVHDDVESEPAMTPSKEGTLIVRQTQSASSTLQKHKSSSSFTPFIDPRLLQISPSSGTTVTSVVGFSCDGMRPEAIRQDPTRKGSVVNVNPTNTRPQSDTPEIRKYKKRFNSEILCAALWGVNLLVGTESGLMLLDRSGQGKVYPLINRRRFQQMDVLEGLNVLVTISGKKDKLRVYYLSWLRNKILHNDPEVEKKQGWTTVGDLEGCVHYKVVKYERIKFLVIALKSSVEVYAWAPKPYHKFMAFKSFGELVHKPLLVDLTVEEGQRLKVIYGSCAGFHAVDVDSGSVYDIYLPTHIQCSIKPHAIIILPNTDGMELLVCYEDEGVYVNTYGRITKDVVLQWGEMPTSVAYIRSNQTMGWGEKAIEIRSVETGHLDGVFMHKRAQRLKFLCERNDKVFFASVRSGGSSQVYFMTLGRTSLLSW

Flt1 = molecular target: T9, Flt1 (Homo sapiens, UniProt P17948); test: AlphaScreen kinase assay, Flt1; details: read-out: IC50, activity toward kinase Flt1
T9 construct: P1826.pETN6 BI-PTP FLT1 M799-D1165-X WT; His6 (N); made in house; host or cells: E. coli (PTP1B co-expressed)
T9 sequence (P17948 with tags, fused parts or gaps): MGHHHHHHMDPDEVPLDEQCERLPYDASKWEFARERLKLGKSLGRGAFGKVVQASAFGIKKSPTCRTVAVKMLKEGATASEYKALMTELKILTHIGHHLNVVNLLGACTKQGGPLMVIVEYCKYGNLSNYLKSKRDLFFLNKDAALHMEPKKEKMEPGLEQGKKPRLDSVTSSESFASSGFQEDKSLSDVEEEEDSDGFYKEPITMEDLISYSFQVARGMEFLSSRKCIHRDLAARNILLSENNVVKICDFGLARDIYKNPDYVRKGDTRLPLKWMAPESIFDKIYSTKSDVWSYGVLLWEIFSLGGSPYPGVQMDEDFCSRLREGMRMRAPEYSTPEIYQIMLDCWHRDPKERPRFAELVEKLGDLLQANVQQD

T1 sequence (P15056 whole entry): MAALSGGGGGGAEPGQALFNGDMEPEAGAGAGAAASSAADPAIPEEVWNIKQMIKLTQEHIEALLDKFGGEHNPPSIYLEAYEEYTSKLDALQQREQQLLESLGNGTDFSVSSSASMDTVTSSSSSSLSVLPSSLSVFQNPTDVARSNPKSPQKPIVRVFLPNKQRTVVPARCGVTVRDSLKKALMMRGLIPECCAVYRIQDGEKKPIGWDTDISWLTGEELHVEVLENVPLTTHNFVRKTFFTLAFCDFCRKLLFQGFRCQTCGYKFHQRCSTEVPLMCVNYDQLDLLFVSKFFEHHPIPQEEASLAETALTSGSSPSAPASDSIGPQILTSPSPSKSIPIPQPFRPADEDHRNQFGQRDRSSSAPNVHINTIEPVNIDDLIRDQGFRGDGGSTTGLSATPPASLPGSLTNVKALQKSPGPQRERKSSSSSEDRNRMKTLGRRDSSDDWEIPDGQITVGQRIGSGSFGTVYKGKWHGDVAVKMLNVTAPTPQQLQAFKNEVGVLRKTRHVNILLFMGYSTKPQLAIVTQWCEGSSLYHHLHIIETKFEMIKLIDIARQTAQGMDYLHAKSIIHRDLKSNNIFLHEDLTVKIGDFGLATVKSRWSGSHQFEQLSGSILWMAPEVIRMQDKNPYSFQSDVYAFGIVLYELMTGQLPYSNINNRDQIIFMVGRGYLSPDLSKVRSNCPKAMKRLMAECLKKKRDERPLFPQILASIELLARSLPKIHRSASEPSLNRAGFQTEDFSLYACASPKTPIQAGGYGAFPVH

| IC50 (B-Raf) | IC50 (B-Raf V600E) | IC50 (c-Raf-1) | IC50 (FGFR1) | IC50 (Fms) | IC50 (Jnk1) | IC50 (Kit) | IC50 (Src) | IC50 (MAP4K4) | IC50 (Flt1) | Compound |
| --- | --- | --- | --- | --- | --- | --- | --- | --- | --- | --- |
| ≤ 10 µM | ≤ 10 µM | ≤ 10 µM | ≤ 10 µM | ≤ 10 µM | ≤ 10 µM | ≤ 10 µM | ≤ 10 µM | ≤ 10 µM |  | CCCS(=O)(=O)Nc1ccc(F)c(C(=O)c2c[nH]c3ncc(N4CCOCC4)cc23)c1F [Compound P-0853, Propane-1-sulfonic acid [2,4-difluoro-3-(5-morpholin-4-yl-1H-pyrrolo[2,3-b]pyridine-3-carbonyl)-phenyl]-amide] |
| ≤ 10 µM | ≤ 10 µM | ≤ 10 µM | ≤ 10 µM |  |  |  |  | ≤ 10 µM |  | CCCS(=O)(=O)Nc1ccc(Cl)c(C(=O)c2c[nH]c3ncccc23)c1F [Compound P-0904, Propane-1-sulfonic acid [4-chloro-2-fluoro-3-(1H-pyrrolo[2,3-b]pyridine-3-carbonyl)-phenyl]-amide] |
| ≤ 10 µM |  | ≤ 10 µM |  |  |  |  |  | ≤ 10 µM |  | COc1cc(Nc2ccnc3[nH]ccc23)cc(OC)c1OC [Compound P-0909] |
| ≤ 10 µM | ≤ 10 µM | ≤ 10 µM |  | ≤ 10 µM |  | ≤ 10 µM |  | ≤ 10 µM |  | O=C(c1c(F)ccc(NS(=O)(=O)c2ccc(C(F)(F)F)cc2)c1F)c1c[nH]c2ncccc12 [Compound P-0931, N-[2,4-Difluoro-3-(1H-pyrrolo[2,3-b]pyridine-3-carbonyl)-phenyl]-4-trifluoromethyl-benzenesulfonamide] |
| ≤ 10 µM | ≤ 10 µM | ≤ 10 µM | ≤ 10 µM |  |  | ≤ 10 µM |  | ≤ 10 µM |  | O=C(c1c(F)ccc(NS(=O)(=O)c2ccc(Cl)cc2)c1F)c1c[nH]c2ncccc12 [Compound P-0937, 4-Chloro-N-[2,4-difluoro-3-(1H-pyrrolo[2,3-b]pyridine-3-carbonyl)-phenyl]-benzenesulfonamide] |
|  | ≤ 10 µM | ≤ 10 µM |  |  |  |  |  | ≤ 10 µM |  | COc1cccc(S(=O)(=O)Nc2ccc(F)c(C(=O)c3c[nH]c4ncccc34)c2F)c1 [Compound P-0971, N-[2,4-difluoro-3-(1H-pyrrolo[2,3-b]pyridine-3-carbonyl)phenyl]-3-methoxy-benzenesulfonamide] |
|  |  | ≤ 10 µM | ≤ 10 µM |  |  |  |  | ≤ 10 µM |  | O=C(O)c1ccc(F)c(C(=O)c2c[nH]c3ncc(-c4cccnc4)cc23)c1F [Compound P-1017] |
| ≤ 10 µM | ≤ 10 µM | ≤ 10 µM |  |  |  |  |  | ≤ 10 µM |  | CCCS(=O)(=O)Nc1cccc(C(=O)c2c[nH]c3ncccc23)c1F [Compound P-1056, propane-1-sulfonic acid [2-fluoro-3-(1H-1-pyrrolo[2,3-b]pyridine-3-carbonyl)-phenyl]-amide] |
|  | ≤ 10 µM |  | ≤ 10 µM | ≤ 10 µM |  | ≤ 10 µM |  | ≤ 10 µM | ≤ 10 µM | O=C(c1cccc(OC(F)F)c1)c1c[nH]c2ncc(-c3cccnc3)cc12 [Compound P-1415, (3-Difluoromethoxy-phenyl)-(5-pyridin-3-yl-1H-pyrrolo[2,3-b]pyridin-3-yl)-methanone] |
|  | ≤ 10 µM |  |  |  |  | ≤ 10 µM | ≤ 10 µM | ≤ 10 µM | ≤ 10 µM | O=C(O)/C=C/c1cccc(-c2cnc3[nH]cc(C(=O)c4cccc(OC(F)(F)F)c4)c3c2)c1 [Compound P-1417, (E)-3-{3-[3-(3-Trifluoromethoxy-benzoyl)-1H-pyrrolo[2,3-b]pyridin-5-yl]-phenyl}-acrylic acid] |
| ≤ 10 µM | ≤ 10 µM |  | ≤ 10 µM | ≤ 10 µM |  | ≤ 10 µM |  | ≤ 10 µM | ≤ 10 µM | CS(=O)(=O)Nc1cccc(-c2cnc3[nH]cc(C(=O)c4cc(Cl)cc(Cl)c4)c3c2)c1 [Compound P-1429, N-{3-[3-(3,5-Dichloro-benzoyl)-1H-pyrrolo[2,3-b]pyridin-5-yl]-phenyl}-methanesulfonamide] |
